Columns and labels:
RMA-S-HhD cells [1] = test: CTL from peptide-immunized HhD mice against loaded RMA-S-HhD target cells; assay type: in vivo; details: for ability to evoke specific CTL responses (lysis of peptide-loaded target cells): additional Uroplakin Ib, II, III peptides, three weekly immunizations, FIGS. 23a-e; for lymphocyte response specifically lysing CRIPTO-1 peptide-loaded target cells: HhD mice immunized with CRIPTO-1 peptide pools, FIGS. 24a-c; for lysis of RMA-S-HhD targets loaded with homologous BA-46 peptide: CTL from HhD mice immunized with BA-46 peptides; for lysis of RMA-S-HhD target cells loaded with MUC-1 peptide: immunization with a pool of the MUC-1-derived synthetic peptides
Method: (§1) Vaccination: Mice were immunized intraperitonealy three times at 7-day intervals, with 2×10^6 irradiated (5,000 rad) tumor cells, or with peptide-loaded RMA-S-HhD-B7.1 transfectants. Peptide loading of RMA-S-HhD-B7.1 cells was performed as follows: After washing the cells 3 times in PBS, the surface expression of HhD monochins was stabilized by a 4 hours culture at 26° C. Synthetic peptides, or peptide extracts were added to 10×10^6 cells in 1 ml of opti-MEM (Gibco) medium to a concentration of 100 μM or 1 mM, respectively. The cells were incubated at 26° C. and for additional 3 hours at 37° C. Peptide loaded RMA-S-HhDσ-σB7.1 cells were irradiated (5000 rad), washed, resuspended in PBS and injected into mice. In mixed synthetic vaccines, RMA-S-HhD-B7.1 cells were loaded separately with each peptide and pooled before vaccination.
(§2) In vitro cytotoxicity assays: Mice were immunized intraperitonealy three times at 7-day intervals, with 2×10^6 irradiated (5,000 rad) tumor cells, or with peptide-loaded RMA-S-HhD-B7.1 transfectants. Spleens were removed on day 10 after the last immunization and splenocytes were restimulated in vitro with either irradiated tumor cells (for mice immunized with tumor cells) or with lymphocytes pulsed with 100 μM synthetic peptides or 1 mM patients-derived extract in opti-MEM (Gibco) medium. Restimulated lymphocytes were maintained in RPMI 1640 medium containing 10% FCS, 1 mM glutamine, combined antibiotics, 1 mM sodium pyruvate, 10 mM HEPES, pH 7.4, 5×10^−5 M β-mercaptoethanol, and 1% nonessential amino acids (RPMI-HEPES medium) for 5 days. Viable lymphocytes (effector cells), were separated by lymphocyte-M (Cedarlane, Ontario, Canada) centrifugation, resuspended in RPMI-HEPES medium, and admixed at different ratios with 5×10^3 peptide loaded RMA-S-HhD cells, previously loaded with different peptides (see vaccination). CTL assays were performed in U-shaped microtiter wells, at 37° C., 5% CO2 for 5 hours. Cultures were terminated by centrifugation at 1,000 rpm for 10 minutes at 4° C. A total of 100 μl of the supernatants was mixed with scintillation fluids and counted in a beta counter. […] Spontaneous release was determined by incubation of 100 μl-labeled target cells with 100 μl of medium. Maximal release was determined by solubilization of target cells in 100 μl 0.1 M NaOH.
CTL induced in HhD mice recognize the same UP II peptides as human PBL: The immunogenicity of Uroplakin homologue peptides was also evaluated in a mouse model, in which the murine MHC class I genes are not expressed (D^b−/−, β2-microglobulin −/−, double knockout) and which is transgenic for a HLA-A2 and human β2-microglobulin monochain (HhD mice). The advantage of a HLA-A2 transgenic mouse model is that CTL epitopes can be detected more easily and reproducibly, without lengthy and repeated in vitro stimulations. The murine MHC knockout mice used herein has the additional advantage that their CTL repertoire is only HLA-A2 restricted and the CTL response against human tumor extract or human cell lines is not masked by a potential xenogeneic response. HhD mice were immunized with the 7 Uroplakin II homologue peptides or with the same TCC peptide extract used for stimulation of patient's PBL. Lymphocytes were obtained from the spleens of these mice and restimulated in vitro once with the corresponding peptides. […]

[2] = MHC stabilization assay: peptide binding to HhD on RMA-S-HhD cells, indirect FACS; set-up: species or system human; details: peptide loaded RMA-S-HhD cells
Method: Measurement of peptide binding by stabilization of cell surface MHC: Peptide binding to HhD was measured by stabilization of HhD on RMA-S transfectants, using an indirect FACS assay as follows: 5×10^5 peptide loaded TAP-2 deficient RMA-S-HhD cells (see vaccination), were incubated with anti HLA monoclonal antibodies for 30 minutes at 4° C. After washing the cells with PBS-0.5%, BSA+0.1%, sodium azide, the second antibody, goat anti mouse-FITC (Jackson Lab.), was applied for 30 minutes at 4° C. Following washing, the amount of bound antibodies was detected by FACSscan […].
Mouse monoclonal antibodies. B-9-12, w6/32 (anti HLA A, B, C) and B.B7.2 (anti HLA-A2.1) were used for analyses.
Cytotoxic activity of human peripheral blood lymphocytes (PBL) against target cells pulsed with Uroplakin II peptide homologues: The human UP II amino acid sequence was screened for potential HLA-A2 binding, 9 amino acids peptides by a HLA binding motif program. We chose that particular HLA allele because it is present in 45% of the population. Seven 9-mer peptides, which were predicted to bind with high affinity to HLA-A2 were selected and synthesized (Table 1). The binding of these peptides to HLA-A2 was tested by an MHC stabilization assay utilizing TAP negative cells, which can present exogeneously bound peptides. The RMA-S cells (30) transfected by the HhD construct were loaded with various concentrations of UP II peptides and then reacted with anti-HLA antibody. High affinity binding was shown for all 7 peptides by FACS analyses (FIG. 1).

RMA-S-HhD cells [3] = test: CTL from HhD mice immunized with tumor extracted peptides or DU145-HhD cells against loaded RMA-S-HhD target cells; assay type: cell-based; details: for recognition and lysis of peptide loaded targets by anti-tumor extract CTL: CTL against breast tumor peptide extracts, E:T 50:1
Method: as §1
as §2, with “Cultures were terminated by centrifugation at 1,000 rpm for 10 minutes at 4° C.” left out
CTL induced in HhD mice recognize the same UP II peptides as human PBL: The immunogenicity of Uroplakin homologue peptides was also evaluated in a mouse model, in which the murine MHC class I genes are not expressed (D^b−/−, β2-microglobulin −/−, double knockout) and which is transgenic for a HLA-A2 and human β2-microglobulin monochain (HhD mice). The advantage of a HLA-A2 transgenic mouse model is that CTL epitopes can be detected more easily and reproducibly, without lengthy and repeated in vitro stimulations. […]

MDA-MB-157-HhD cells = test: Lysis of MDA-MB-157-HhD breast carcinoma cells by CTL from immunized HhD mice; assay type: in vitro; details: CTL from HhD mice immunized with the named substance
prostate cancer = details: DC based vaccine, 51 prostate cancer patients, HLA-A2; cited from earlier work
T2 cells = test: CTL assay with patients' PBL resensitized with pooled TCC extracted peptides; assay type: cell-based, human; details: CTL from TCC patients' PBL

**Q.** For “FLLVGFAGA (listed as Homo sapiens) [Uroplakin III/3.3]”, which “ability to evoke specific CTL responses (lysis of peptide-loaded target cells)” value (shortened to “ability to evoke specific CTL responses”) (RMA-S-HhD cells [1]) is on record?
**A.** could elicit lymphocytes which specifically lysed target cells

**Q.** For “KMVRFSYSV (listed as Homo sapiens) [Cripto-1/C10]”, which “lymphocyte response specifically lysing CRIPTO-1 peptide-loaded target cells” value (RMA-S-HhD cells [1]) is on record?
**A.** can elicit lymphocyte response which specifically lyses CRIPTO-1 peptide-loaded target cells

**Q.** With “MLVGICLSI (listed as Homo sapiens) [Cripto-1/C8]” as the sequence, how does the “lymphocyte response specifically lysing CRIPTO-1 peptide-loaded target cells” value (RMA-S-HhD cells [1]) read?
**A.** can elicit lymphocyte response which specifically lyses CRIPTO-1 peptide-loaded target cells

**Q.** Which “lysis of RMA-S-HhD targets loaded with homologous BA-46 peptide” value (shortened to “lysis … with homologous BA-46 peptide”) (RMA-S-HhD cells [1]) does the source give for “RLLAALCGA (listed as Homo sapiens) [BA-46-9]” here?
**A.** 40%

**Q.** For “VLLSVAMFL (listed as Homo sapiens) [Uroplakin II/8]”, which “ability to evoke specific CTL responses” value (RMA-S-HhD cells [1]) is on record?
**A.** could elicit lymphocytes which specifically lysed target cells

**Q.** Which “peptide binding to HhD, stabilization of cell surface HhD (FACS)” value (shortened to “peptide binding to HhD, stabilization”) [2] does the source give for “ALASTAPPV (listed as Homo sapiens) [MUC-1/E6]” here?
**A.** higher binding affinity

**Q.** And the “recognition and lysis of peptide loaded targets by anti-tumor extract CTL” value (“recognition and lysis” for short) (RMA-S-HhD cells [3])?
**A.** recognized and lysed

**Q.** And the “lysis of RMA-S-HhD target cells loaded with MUC-1 peptide” value (from here on “lysis of RMA-S-HhD target cells loaded”) (RMA-S-HhD cells [1])?
**A.** 15%

**Q.** And the “lysis of breast carcinoma line HhD transfectant (MDA-MB-157-HhD) relative to parental cells” value (MDA-MB-157-HhD cells)?
**A.** Preferential lysis

**Q.** Which “ability to evoke specific CTL responses” value (RMA-S-HhD cells [1]) does the source give for “AILCWTFWV (listed as Homo sapiens) [Uroplakin Ib/B1]” here?
**A.** could elicit lymphocytes which specifically lysed target cells

**Q.** With “NLFETPVEA (listed as Homo sapiens) [BA-46-6]” as the sequence, how does the “lysis … with homologous BA-46 peptide” value (RMA-S-HhD cells [1]) read?
**A.** 40%

**Q.** Which “ability to evoke specific CTL responses” value (RMA-S-HhD cells [1]) does the source give for “ILNAYLVRV (listed as Homo sapiens) [Uroplakin III/3.2]” here?
**A.** could elicit lymphocytes which specifically lysed target cells

**Q.** Which “ability to evoke specific CTL responses” value (RMA-S-HhD cells [1]) does the source give for “KILLAYFIL (listed as Homo sapiens) [Uroplakin Ib/B6]” here?
**A.** could elicit lymphocytes which specifically lysed target cells

**Q.** For “GLQHWVPEL (listed as Homo sapiens) [BA-46-7]”, which “lysis … with homologous BA-46 peptide” value (RMA-S-HhD cells [1]) is on record?
**A.** 60%

**Q.** Which “lymphocyte response specifically lysing CRIPTO-1 peptide-loaded target cells” value (RMA-S-HhD cells [1]) does the source give for “KMARFSYSV (listed as Homo sapiens) [Cripto-1/C1]” here?
**A.** can elicit lymphocyte response which specifically lyses CRIPTO-1 peptide-loaded target cells

**Q.** For “NLTISDVSV (listed as Homo sapiens) [MUC-1/A7]”, which “peptide binding to HhD, stabilization” value [2] is on record?
**A.** higher binding affinity

**Q.** And the “recognition and lysis” value (RMA-S-HhD cells [3])?
**A.** recognized and lysed

**Q.** And the “lysis of RMA-S-HhD target cells loaded” value (RMA-S-HhD cells [1])?
**A.** 30%

**Q.** What about the “lysis of breast carcinoma line HhD transfectant (MDA-MB-157-HhD) relative to parental cells” value (MDA-MB-157-HhD cells) of the same sequence?
**A.** Preferential lysis

**Q.** Which “ability to evoke specific CTL responses” value (RMA-S-HhD cells [1]) does the source give for “ILCWTFWVL (listed as Homo sapiens) [Uroplakin Ib/B5]” here?
**A.** could elicit lymphocytes which specifically lysed target cells

**Q.** For “ALFDIESKV (listed as Homo sapiens) [PSMA5]”, which “patients responding by decreased levels of serum PSA” value (prostate cancer) is on record?
**A.** 7 patients

**Q.** For “LLLTVLTVV (listed as Homo sapiens) [MUC-1/D6]”, which “peptide binding to HhD, stabilization” value [2] is on record?
**A.** higher binding affinity

**Q.** And the “recognition and lysis” value (RMA-S-HhD cells [3])?
**A.** recognized and lysed

**Q.** What about the “lysis of RMA-S-HhD target cells loaded” value (RMA-S-HhD cells [1]) of the same sequence?
**A.** 38%

**Q.** What about the “lysis of breast carcinoma line HhD transfectant (MDA-MB-157-HhD) relative to parental cells” value (MDA-MB-157-HhD cells) of the same sequence?
**A.** Preferential lysis

**Q.** For “FILMFIVYA (listed as Homo sapiens) [Uroplakin Ib/B2]”, which “ability to evoke specific CTL responses” value (RMA-S-HhD cells [1]) is on record?
**A.** could elicit lymphocytes which specifically lysed target cells

**Q.** With “MLAGICLSI (listed as Homo sapiens) [Cripto-1/C12]” as the sequence, how does the “lymphocyte response specifically lysing CRIPTO-1 peptide-loaded target cells” value (RMA-S-HhD cells [1]) read?
**A.** can elicit lymphocyte response which specifically lyses CRIPTO-1 peptide-loaded target cells

**Q.** For “FLSFHISNL (listed as Homo sapiens) [MUC-1/F6]”, which “lysis of RMA-S-HhD target cells loaded” value (RMA-S-HhD cells [1]) is on record?
**A.** 15%

**Q.** Which “lysis of T2 cells loaded with nonspecific peptides” value (T2 cells) does the source give for “YMDGTMSQV [Tyrosinase, reference compound]” here?
**A.** no lysis

**Q.** And the “specific lysis of loaded RMA-S-HhD cells” value (RMA-S-HhD cells [3]; CTL from HhD mice immunized with breast tumor extract peptide, E:T 100:1)?
**A.** No lysis

**Q.** And the “lysis of loaded RMA-S-HhD cells, lytic units (LU30)” value (RMA-S-HhD cells [1]; CTL from HhD mice immunized with human Uroplakin II peptides 1-7, substance loaded on targets)?
**A.** no lysis

**Q.** What about the “ability to evoke specific CTL responses” value (RMA-S-HhD cells [1]) of the same sequence?
**A.** no significant lysis

**Q.** And the “lysis of targets loaded with nonspecific peptides” value (RMA-S-HhD cells [1]; overall, all immunized groups of Example 2)?
**A.** no lysis

— patent publication US7531629B2, “Tumor associated antigen peptides and use of same as anti-tumor vaccines” (Yeda Research and Development Co. Ltd., priority 1998, dated 2009)
